The supplement of paper PMC13207355

Columns and labels:
Conditions in all cases: exposure time: 72 h
[1] = test system: E28 (patient-derived glioblastoma stem cells of classical subtype); test: surviving fraction (nuclei count normalised to DMSO); higher = more cells surviving (less toxic)
[2] = test system: FT3469 (normal neural stem cell line); test: as above
[3] = test system: E13 (patient-derived glioblastoma stem cells of classical subtype); test: as above
[4] = test system: E57 (patient-derived glioblastoma stem cells of mesenchymal subtype); test: as above
[5] = test system: E34 (patient-derived glioblastoma stem cells of proneural subtype); test: as above
[6] = test system: E21 (patient-derived glioblastoma stem cells of mesenchymal subtype); test: as above
[7] = test system: E31 (patient-derived glioblastoma stem cells of proneural subtype); test: as above
[8] = test system: E28; test: phenotypic distance (Euclidean, principal components) from DMSO controls (arbitrary units); higher = stronger morphological change
[9] = test system: FT3469; test: as above
[10] = test system: E13; test: as above
[11] = test system: E57; test: as above
[12] = test system: E34; test: as above
[13] = test system: E21; test: as above
[14] = test system: E31; test: as above
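Wherever phenotypic distance (Euclidean, principal components) from DMSO controls is given: cell Painting imaging in 384-well plates, CellProfiler features reduced to at least 20 principal components, Euclidean distance versus same-plate DMSO vehicle wells (0.1% v/v), median over six images per well.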
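Wherever surviving fraction (nuclei count normalised to DMSO) is given: nuclei counted by high-content imaging of Hoechst-stained cells in laminin-coated 384-well plates, relative to 0.1% DMSO vehicle wells, with staurosporine as cell-death control.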

COc1cc(NS(C)(=O)=O)ccc1Nc1c2ccccc2nc2ccccc12 [Amsacrine]
Conditions	phenotypic distance	surviving fraction
[1], 4.1 nM	–	0.875
[1], 12.3 nM	–	0.529
[1], 37 nM	–	0.427
[1], 111.1 nM	–	0.474
[1], 333.3 nM	–	0.374
[1], 1000 nM	–	0.467
[1], 3000 nM	–	0.126
[2], 4.1 nM	–	0.745
[2], 12.3 nM	–	0.751
[2], 37 nM	–	0.593
[2], 111.1 nM	–	0.731
[2], 333.3 nM	–	0.745
[2], 1000 nM	–	0.645
[2], 3000 nM	–	0.363
[3], 4.1 nM	–	0.946
[3], 12.3 nM	–	0.807
[3], 37 nM	–	0.489
[3], 111.1 nM	–	0.414
[3], 333.3 nM	–	0.414
[3], 1000 nM	–	0.387
[3], 3000 nM	–	0.132
[4], 4.1 nM	–	0.935
[4], 12.3 nM	–	0.759
[4], 37 nM	–	0.484
[4], 111.1 nM	–	0.21
[4], 333.3 nM	–	0.192
[4], 1000 nM	–	0.161
[4], 3000 nM	–	0.0825
[5], 4.1 nM	–	0.977
[5], 12.3 nM	–	0.867
[5], 37 nM	–	0.823
[5], 111.1 nM	–	0.552
[5], 333.3 nM	–	0.493
[5], 1000 nM	–	0.484
[5], 3000 nM	–	0.379
[6], 4.1 nM	–	0.908
[6], 12.3 nM	–	1.08
[6], 37 nM	–	0.72
[6], 111.1 nM	–	0.45
[6], 333.3 nM	–	0.388
[6], 1000 nM	–	0.197
[6], 3000 nM	–	0.0813
[7], 4.1 nM	–	0.573
[7], 12.3 nM	–	0.509
[7], 37 nM	–	0.314
[7], 111.1 nM	–	0.247
[7], 333.3 nM	–	0.288
[7], 1000 nM	–	0.244
[7], 3000 nM	–	0.0342
[8], 4.1 nM	1.15	–
[8], 12.3 nM	2.1	–
[8], 37 nM	3.15	–
[8], 111.1 nM	2.93	–
[8], 333.3 nM	3.24	–
[8], 1000 nM	3.28	–
[8], 3000 nM	4.07	–
[9], 4.1 nM	0.866	–
[9], 12.3 nM	1.42	–
[9], 37 nM	1.99	–
[9], 111.1 nM	2.25	–
[9], 333.3 nM	2.14	–
[9], 1000 nM	2.2	–
[9], 3000 nM	3.03	–
[10], 4.1 nM	0.565	–
[10], 12.3 nM	1.43	–
[10], 37 nM	4.51	–
[10], 111.1 nM	6.51	–
[10], 333.3 nM	6.57	–
[10], 1000 nM	6.84	–
[10], 3000 nM	7.75	–
[11], 4.1 nM	0.741	–
[11], 12.3 nM	2.05	–
[11], 37 nM	4.75	–
[11], 111.1 nM	10.6	–
[11], 333.3 nM	10.7	–
[11], 1000 nM	8.66	–
[11], 3000 nM	6.92	–
[12], 4.1 nM	0.614	–
[12], 12.3 nM	1.45	–
[12], 37 nM	2.78	–
[12], 111.1 nM	6.15	–
[12], 333.3 nM	5.83	–
[12], 1000 nM	4.78	–
[12], 3000 nM	3.81	–
[13], 4.1 nM	0.893	–
[13], 12.3 nM	1.83	–
[13], 37 nM	2.5	–
[13], 111.1 nM	6.57	–
[13], 333.3 nM	6.68	–
[13], 1000 nM	5.68	–
[13], 3000 nM	7.87	–
[14], 4.1 nM	1.63	–
[14], 12.3 nM	3.02	–
[14], 37 nM	3.7	–
[14], 111.1 nM	3.82	–
[14], 333.3 nM	2.97	–
[14], 1000 nM	3	–
[14], 3000 nM	6.79	–
